Results taken from US9796674B2, “Benzyl urea derivatives for activating TGF-beta signaling” (THE BOARD OF TRUSTEES OF THE LELAND STANFORD JUNIOR …, priority 2013, dated 2017).
“Also recorded” adds a separate entry of the source. Read-outs that look alike come from different tables or passages of the source.

Key:
[1] = system: human macrophages differentiated from THP-1 monocytic cell lines; assay: Fibrillar Aβ clearance by THP-1 macrophages; type: cell-based; settings: 24 h, 2, 5, or 10 μM
Description: SRI-011381 promotes Aβ clearance in cell culture: TGF-β1 promotes Aβ clearance in a microglia cell line. To test whether SRI-011381 has similar properties, mouse J774A.1 macrophages and human macrophages differentiated from THP-1 monocytic cell lines were treated with fibrillar Aβ in the absence or presence of compound (2, 5, or 10 μM) for 24 h. Conditioned medium was harvested and the remaining Aβ that was not phagocytosed by macrophages was quantified by Aβ ELISA.
FIGS. 4A and 4B present data from experiments in which human macrophages differentiated from THP-1 monocytic cell lines and mouse J774A.1 macrophages were incubated with fibrillar Aβ in the absence or presence of compound (2 or 5 μM) for 24 h. Conditioned medium was harvested and the remaining Aβ was quantified by Aβ ELISA. The collected medium (FIGS. 4C-4D) was added to N2A-APP-Swe cells (mouse Neuro-2A neuroblastoma cells stably expressing Swedish APP695) and incubated for 24 h. Neurotoxicity was quantified by an MTS Assay.
Mouse J774A.1 macrophages and human macrophages that were differentiated from THP-1 monocytic cell lines were treated with fibrillar Aβ42 in the absence or presence of SRI-011382 or its derivative compounds (2, 5, or 10 μM) for 24 h. Conditioned medium was harvested and the remaining Aβ42 that was not phagocytosed by macrophages was quantified by Aβ42 ELISA kit (Invitrogen). […]

FvB wildtype mice = type: in vivo
Description: Excitotoxic injury model: Mice are injured with kainic acid and treated with different test compounds at two concentrations each to determine if they can reduce neurodegeneration and/or microglial activation. Wildtype mice on the FVB/N genetic background (8-weeks-old) are typically injured with kainic acid (Tocris, Ellisville, Mo.) dissolved in PBS and injected subcutaneously (s.q., 20 mg/kg). Seizure activity is scored from 0 to 5, with 0 corresponding to no behavioral changes and 5 corresponding to constant rearing and falling. Only kainate-injected mice reaching at least stage 3 are used for the studies. On day 5 following injury, mice are anesthetized, transcardially perfused with 0.9% saline, and brains harvested and dissected. One hemi-brain may be fixed for 24 hours in 4% paraformaldehyde and cryoprotected in 30% sucrose. Serial coronal sections (40 μm) can be cut with a freezing microtome (Leica, Allendale, N.J.) and stored in cryoprotective medium. One set of sections, representing different levels of the hippocampus, is used for the various stains. The other hemi-brain is dissected into hippocampus, cortex, thalamus, brain stem, and cerebellum. In this manner, the ability of test compounds to reduce neurodegeneration in kainate-injected mice can be assayed.
SRI-011381 is neuroprotective in a model of acute neurodegeneration: To study the potential neuroprotective effect of SRI-011381 in vivo, FvB wildtype mice were pre-treated with compound or vehicle for 3 days before excitotoxic injury was induced with kainic acid (10 mg/kg, SQ). Mice continued to receive daily injections of compound until they were sacrificed at day 5 after kainic acid injury. Brains were removed, fixed with paraformaldehyde, sectioned into […] sections using a cryomicrotome and stained with cresyl violet, or immunohistochemical methods. Sections for analysis of synaptophysin, MAP2, and NeuN were subjected to blinded confocal quantitative analysis of neurodegeneration.
To study the potential neuroprotective effect of SRI-011381, FvB wild-type mice were pre-treated with compound or vehicle for 3 days before excitotoxic injury was induced with kainic acid (10 mg/kg). Mice continued to receive daily injections of compound until they were sacrificed at day 5 after kainic acid injury. Kainic acid treatment alone caused a roughly 50% lethality in this experiment (lethality greatly varies in this model and is very difficult to control, but survivors from experiments with greater than 25% lethality typically show significant neurodegeneration in the hippocampus).
Brains were removed, fixed with paraformaldehyde, sectioned into […] sections using a cryomicrotome and stained with cresyl violet, or immunohistochemical methods. Sections were analyzed for synaptophysin, MAP2, and NeuN by confocal quantitative analysis of neurodegeneration. All observers were completely blinded to the treatment conditions of the mice.

[2] = PAMPA double sink permeability assay; type: in vitro ADME; settings: pH 7.4, 6.2, 5.0, read-out: sum of the permeability coefficients (Pe)
Description: Permeability Assays: PAMPA screens, both for absorption from the gut and through blood brain barrier, were used as a first tier screen for this program. SRI-011381 was evaluated in the double sink assay format and the sum of the permeability coefficients at three pH values (7.4, 6.2, 5.0) was calculated (Pe) to be 781×10^−6 cm/s, which is consistent with an orally available compound.
Permeability PAMPA: The PAMPA assay was used to predict oral bioavailability of compounds. The PAMPA determines the permeability of compounds across a biological membrane using a synthetic lipid membrane and detection by UV absorbance. […] The PAMPA-BBB assay was performed, to predict permeability to the blood brain barrier, as an aqueous assay and as a co-solvent assay. In this assay the composition of the lipid membrane included brain-derived lipids, mimicking the BBB membrane.

[3] = system: CYPs 1A2, 2B6, 2C9, 2C19, 2D6, 3A4; assay: CYP inhibition in human liver microsomes; type: in vitro ADME; settings: 1 and 10 μM, significant = >30% reduction in activity
Source text: CYP Inhibition: SRI-011381 was screened for CYP inhibition, an indicator of potential drug interactions. […] Thus, this compound is unlikely to cause clinically relevant interactions due to effects on co-administered drugs metabolized by these hepatic enzymes.
Drug Interactions (GYP inhibition): GYPs are major enzymes involved in drug metabolism and this assay is used to screen the inhibitory potential of test compounds on in vitro CYP activity, and help predict potential drug interactions due to inhibition of metabolism of one drug by another. This assay was performed by incubating test compounds with human liver microsomes and model CYP substrates (i.e., phenacetin (CYP1A2), bupropion (CYP2B6), diclofenac (CYP2C9), mephenytoin (CYP2C19), bufuralol (CYP2D6), testosterone (CYP3A4), and midazolam (CYP3A4)). Control incubations containing compounds known to inhibit specific CYPs were also included and incubated in the same manner as the test compounds (i.e., furafylline (CYP1A2), thioTEPA (CYP2B6), sulfaphenazole (CYP2C9), tranylcypromine (CYP2C19), quinidine (CYP2D6), and ketoconazole (CYP3A4)). The data is expressed as ‘% of control’, where the controls consist of the model substrates incubated with microsomes (no test compounds or inhibitors).

[4] = one third of maximum tolerated dose

With `O=C(NC1CCCCC1)N(Cc1ccccc1)CC1CCNCC1` [SRI-011381, 1-Benzyl-3-cyclohexyl-1-(piperidin-4-ylmethyl)urea] as the compound, how does the “fibrillar Aβ clearance” value [1] read?
Its value is “promoted fibrillar Aβ clearance; also recorded: promoted fibrillar Aβ42 clearance”.

And the “fibrillar Aβ clearance” value ([1]; listed as SRI-11381)?
Its value is “promote fibrillar Aβ42 clearance”.

What about the “lethality after kainic acid” value (FvB wildtype mice; 10 mg/kg daily) of the same compound?
The value was “significant reduction in lethality”.

And the calbindin loss reduced (FvB wildtype mice; kainic acid 10 mg/kg, day 5)?
The calbindin loss reduced was 30%.

And the “neuronal damage reversed or prevented, all neuronal markers” value (FvB wildtype mice; kainic acid 10 mg/kg, day 5)?
Its value is “at least 30%”.

What about the “reduction of CD68 expression” value (FvB wildtype mice; kainic acid 10 mg/kg, day 5) of the same compound?
The value was “more than 20%”.

And the “lethality after kainic acid” value (FvB wildtype mice; mouse, in vivo, 60 mg/kg)?
Its value is “increase in lethality”.

What about the “pathology reduced: Cresyl violet” value (FvB wildtype mice; [4]) of the same compound?
The value was 54.0%.

What about the “pathology reduced: D68” value (FvB wildtype mice; [4]) of the same compound?
Its value is 22.5%.

And the “pathology reduced: MAP-2” value (FvB wildtype mice; [4])?
Its value is 37.4%.

What about the “pathology reduced: NeuN” value (FvB wildtype mice; [4]) of the same compound?
Its value is 36.9%.

What about the “pathology reduced: Synaptophysin” value (FvB wildtype mice; [4]) of the same compound?
Its value is 67.5%.

And the “neurodegeneration (percentage of rescue)” value (FvB wildtype mice; systemic administration)?
Its value is “reduces neurodegeneration by 6 markers”.

And the Papp [2]?
The Papp was 781 ×10⁻⁶ cm/s.

What about the CYP inhibition [3] of the same compound?
Its CYP inhibition is “did not inhibit any CYP activity significantly”.
